The values that follow come from PubChem BioAssay (NCI).

What all share (assay): DTP human tumour cell line panel, 48 h
Experiment [1] has as its system ACHN renal.
Experiment [2] concerns HCC-2998 colon.
Experiment [3] concerns HCT-116 colon.
For experiment [4], the system named is HL-60(TB) leukemia.
Experiment [5] has as its system IGROV1 ovarian.
The subject of experiment [6] is PC-3 prostate.
The test system of experiment [7] is SF-295 CNS.
For experiment [8], the system named is T-47D breast.
Experiment [9] has as its system UACC-62 melanoma.
Experiment [10] concerns UO-31 renal.

Each structure is given as a SMILES string. Where “and” joins values, the source holds several entries; their conditions need not be identical. Equal entries are not always repeated.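 In this assay, cells in 96-well plates receive the compound at five concentrations for 48 hours. Endpoints are linearly interpolated between the surrounding concentrations. At the GI50, growth is halved. Definition used: TGI = concentration required for complete inhibition of growth.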

For orientation: GI50 means the concentration at which growth is held to half of that of the control. The TGI is the concentration giving total growth inhibition. Higher therefore signals less potent growth arrest. With `NC(=O)c1cn(C2CC(O)C(CO)O2)c2ncnc(N)c12` (stereo not given), the GI50 in experiment [1] was 3.62 µM; in experiment [2], 1.47 µM; in experiment [3], 4.1 µM; in experiment [4], 2.73 µM; in [5], 0.749 µM; in [6] it was 1.57 µM. For the same molecule, the GI50 was 12.6 µM in experiment [7], 0.0549 µM in [8], 2.39 µM in [9] and 1.84 µM in [10]. Also, the TGI in [1] is > 58.1 µM; in experiment [2], 5.62 µM; in experiment [3], > 100 µM; in experiment [4], 20 µM; in [5], 5.16 µM; in experiment [6], > 35.4 µM. In addition, the TGI in [7] is > 76.6 µM; in experiment [8] it was 1.82 µM; in experiment [9], 23 µM; in experiment [10] it was 18.5 µM.
Take `COc1cccc(/C=C2\CCC(CN(C)C)C2=O)c1` (stereo not given): the TGI was 25.5 µM in experiment [1]; 24.4 µM in experiment [2]; 16 µM in experiment [3]; 2.47 µM in experiment [4]; 23.4 µM in experiment [5]; 27.2 µM in experiment [6]. Further, the TGI in [7] was 30.8 µM; in experiment [8], 16.6 µM; in experiment [9] it was 20.9 µM; in experiment [10], 20.1 µM.
On to `Cc1ccc(-c2cc(C(=O)Nc3ccc(S(=O)(=O)N4CCCCC4)cc3)[nH]n2)c(O)c1`, for which the GI50 in [1], in [2], in [3], in experiment [4], in experiment [5] and in experiment [6] was > 100 µM throughout. Also, the GI50 in experiment [7], in experiment [8], in experiment [9] and in experiment [10] was > 100 µM in each case. Further, the TGI in experiment [1], in [2], in experiment [3], in experiment [4], in [5] and in experiment [6] was > 100 µM throughout. The TGI in experiment [7], in experiment [8], in [9] and in experiment [10] was > 100 µM in each case.
As for `Cc1cc(-c2nc3sc(C)cn3c2/C=N/N=C(N)N)c(C)s1`, the GI50 was 18.7 µM in [1]; 1.73 µM in experiment [2]; 1.79 µM in experiment [3]; > 100 µM in experiment [4]; 28.8 µM in experiment [5]; 3.65 µM in [6]. In addition, the GI50 in experiment [7] was 1.78 µM; in [8] it was 3.56 µM; in [9] it was 16.5 µM; in experiment [10], 32.7 µM. Besides, the TGI in [1] is 34.4 µM; in experiment [2], 3.24 µM; in experiment [3], 3.37 µM; in experiment [4] it was > 100 µM; in experiment [5], > 100 µM; in experiment [6] it was 15.5 µM. Besides, the concentration for total growth inhibition (TGI) in [7] was 3.85 µM; in [8], 13.8 µM; in experiment [9], 30.5 µM; in experiment [10] it was > 100 µM.
Take `Cn1cnc([N+](=O)[O-])c1S(=O)(=O)Oc1ccc(Cl)cc1`: the GI50 was 1.8 µM in [1]; 15.9 µM in experiment [2]; 8.59 µM in experiment [3]; 1.85 µM in [4]; 2.14 µM in [5]; 17.2 µM in experiment [6]. In addition, the GI50 was 25.2 µM in experiment [7], 2.21 µM in experiment [8], 13.2 µM in [9] and 2.36 µM in experiment [10]. The TGI is 3.28 µM in experiment [1]; 30.2 µM in experiment [2]; 21.8 µM in experiment [3]; 3.77 µM in experiment [4]; 5.58 µM in experiment [5]; 49.2 µM in experiment [6]. Besides, the TGI in experiment [7] is > 100 µM; in experiment [8], 6.3 µM; in experiment [9], 29.1 µM; in [10], 8.75 µM.
`CCc1cc2c(c(OCC(F)(F)F)c(C(=O)NC3CCN(C(=O)CO)CC3)n2C)c(=O)n1CC(=O)c1ccccc1`: the GI50 in [1] is > 64.5 µM; in experiment [2] it was > 78 µM; in experiment [3], 63.5 µM; in experiment [4], 59.3 µM; in experiment [5] it was > 80.5 µM; in experiment [6] it was > 73.5 µM. For the same molecule, the GI50 in experiment [7] was 34.7 µM; in experiment [8] it was > 65.9 µM; in [9], 57.8 µM; in experiment [10], 45.3 µM. Also, the TGI in experiment [1], in experiment [2], in [3], in experiment [4], in experiment [5] and in experiment [6] was > 100 µM in each case. Further, the TGI in experiment [7], in experiment [8], in experiment [9] and in experiment [10] was > 100 µM each time.
For `CCOC(=O)c1ccc(N2NC(=O)/C(=C/c3ccc([N+](=O)[O-])o3)C2=O)cc1`, the GI50 in [1] was 8.27 µM; in experiment [2], > 41.8 µM; in experiment [3] it was 8.37 µM; in experiment [4], 11.7 µM; in experiment [5], 20 µM; in experiment [6], 21.3 µM. The GI50 is > 39 µM in experiment [7], 8.92 µM in experiment [8], 19.9 µM in experiment [9] and 5.64 µM in [10]. For the same molecule, the TGI in experiment [1] is 20.8 µM; in experiment [2], > 56.5 µM; in experiment [3], 21.4 µM; in experiment [4], 47.4 µM; in experiment [5], 41.4 µM; in experiment [6] it was 55.8 µM. For the same molecule, the TGI was > 56.1 µM in [7], 33.4 µM in experiment [8], 43 µM in [9] and 13.8 µM in [10].
Turning to `O=C(COc1ccccc1)NNc1ccccc1`, the GI50 in [1] was 12.5 µM and 13.9 µM; in experiment [2], 27.2 µM and 26.6 µM; in experiment [3], 207 µM; in experiment [4], 3.91 µM and 9.54 µM; in [5], > 300 µM; in experiment [6], 45.3 µM and 44.1 µM. In addition, the GI50 in experiment [7] is 18.3 µM and 11.2 µM; in experiment [8], 35.2 µM and 19 µM; in [9], 2.71 µM and 5 µM; in experiment [10], 10.3 µM and 20.1 µM. For the same molecule, the TGI in experiment [1], in experiment [2], in experiment [3], in [4], in experiment [5] and in [6] was > 300 µM throughout. Further, the TGI is > 300 µM in experiment [7]; > 300 µM in [8]; > 79.5 µM and 91.2 µM in [9]; > 300 µM in experiment [10].
As for `Cc1nnn(C)c1-c1cnc2c3ccc(C(C)(C)O)cc3n([C@H](c3ccccc3)C3CCOCC3)c2c1`, the 50% growth inhibitory concentration (GI50) in [1] is 0.0243 µM; in [2] it was 0.0356 µM; in [3] it was 0.0149 µM; in [4], < 0.01 µM; in experiment [5], < 0.02 µM; in [6] it was 0.765 µM. In addition, the GI50 in experiment [7] was 0.0555 µM; in experiment [8], 0.0104 µM; in experiment [9], < 0.01 µM; in experiment [10] it was < 0.01 µM. Moreover, the TGI in experiment [1] was 14.9 µM; in experiment [2], 3.98 µM; in experiment [3], 16.4 µM; in [4], 48.1 µM; in [5] it was > 79.3 µM; in experiment [6], > 100 µM. The TGI was 20.5 µM in experiment [7], > 100 µM in experiment [8], 12.7 µM in experiment [9] and 13.4 µM in [10].
For the molecule `CC(C)C1=Cc2ccc3c(c2C(=O)C1=O)CCCC3`, the TGI in experiment [1] is 7.13 µM; in [2], 30.9 µM; in [3], 5.39 µM; in experiment [4], 1.95 µM; in experiment [5], 12.1 µM; in experiment [6], 26.8 µM. Besides, the TGI in experiment [7] was found to be 25.8 µM; in experiment [8], 0.567 µM; in experiment [9] it was 15.4 µM; in experiment [10], 6.74 µM.
Take `Oc1nc(N2CCOCC2)sc1/C=C1\C=Nc2ccccc21`: the GI50 in [1], in experiment [2], in experiment [3], in experiment [4], in [5] and in experiment [6] was > 100 µM in each case. The GI50 in experiment [7], in [8], in [9] and in experiment [10] was > 100 µM in each case. Besides, the TGI in [1], in experiment [2], in experiment [3], in experiment [4], in experiment [5] and in [6] was > 100 µM throughout. Moreover, the TGI in [7], in [8], in [9] and in [10] was > 100 µM each time.
For the molecule `CN1CCc2ccccc2C1Cc1ccccc1NC(=O)c1sc2ccccc2c1Cl` (stereo not given), the concentration for total growth inhibition (TGI) in [1], in [2], in experiment [3], in [4], in [5] and in experiment [6] was > 100 µM in each case. Further, the TGI in experiment [7], in experiment [8], in experiment [9] and in experiment [10] was > 100 µM each time.
As to `OCc1ccc(-c2nc(-c3ccc4c(c3)OCO4)c(-c3ccccn3)[nH]2)cc1`, the GI50 in experiment [1], in experiment [2], in [3], in [4], in [5] and in [6] was > 25 µM in each case. Besides, the GI50 in [7] is > 25 µM; in [8], > 23.2 µM; in experiment [9] it was > 25 µM; in experiment [10], > 23.6 µM. For the same molecule, the TGI in [1], in [2], in experiment [3], in experiment [4], in experiment [5] and in experiment [6] was > 25 µM throughout. In addition, the TGI in experiment [7], in experiment [8], in [9] and in [10] was > 25 µM throughout.
For the molecule `ClCc1ccccc1Cn1cnc2nc(Cl)nc(Cl)c21`, the GI50 in experiment [1] was 0.209 µM; in [2], 3.96 µM; in experiment [3] it was 0.115 µM; in experiment [4] it was 1.35 µM; in experiment [5], 1.78 µM; in [6], 0.323 µM. Besides, the GI50 in [7] was 9.28 µM; in experiment [8] it was 0.59 µM; in experiment [9], 0.495 µM; in experiment [10], 1.26 µM. In addition, the TGI in experiment [1] turned out to be 0.609 µM; in experiment [2], 8.56 µM; in experiment [3], 0.236 µM; in experiment [4], 8.45 µM; in experiment [5] it was 3.47 µM; in experiment [6], 1.81 µM. The TGI in experiment [7] is 32.3 µM; in [8] it was 5.24 µM; in experiment [9], 1.37 µM; in experiment [10] it was 2.52 µM.
As to `Nc1nc(-c2cccnc2)cc(-c2cc(-c3cccnc3)nc(N)n2)n1`, the TGI in experiment [1], in experiment [2], in [3], in experiment [4], in experiment [5] and in experiment [6] was > 100 µM throughout. The TGI in [7], in experiment [8], in [9] and in experiment [10] was > 100 µM throughout.
As for `O=C1CN=C(c2ccc[nH]2)c2cc(Cl)ccc2N1`, the GI50 was > 100 µM in experiment [1]; > 100 µM in [2]; 13 µM in experiment [3]; 4.16 µM in experiment [4]; > 100 µM in [5]; 93.4 µM in experiment [6]. The GI50 in [7] was > 100 µM; in experiment [8], > 100 µM; in [9], 95 µM; in [10], > 100 µM. Further, the TGI in experiment [1], in [2], in experiment [3], in [4], in experiment [5] and in experiment [6] was > 100 µM throughout. Also, the TGI in experiment [7], in [8], in experiment [9] and in experiment [10] was > 100 µM in each case.
